Experimental data published in PubChem BioAssay AID2060891 (Molecular Pharmacology Branch, DTP, NCI, 2025).

System: K98450-129-R-PDC complex spheroid growth, percent test/control
Assay: Anticancer human tumor K98450-129-R-PDC patient-derived colon adenocarcinoma cell line growth inhibition [RAS]
Details: for IC50: curve of first compound; for viability, T/C: stronger effect = lower value; active = viability on the fitted dose curve at most 10% of control; inactive = the rest
Summary of the method: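 Agents were tested in combination matrices in half-log decrements from a top concentration at or near clinical Cmax (10 microM if undetermined). Targets were multi-cell spheroids of tumour lines plus HUVEC and MSC stromal cells.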

[1] = second compound 0.000949 µM, first compound 0.0316 µM
[2] = second compound 0.000949 µM, first compound 0.1 µM
[3] = second compound 0.000949 µM, first compound 0.316 µM
[4] = second compound 0.000949 µM, first compound 1 µM
[5] = second compound 0.000949 µM, first compound 3.16 µM
[6] = second compound 0.000949 µM, first compound 10 µM
[7] = second compound 0.003 µM, first compound 0.0316 µM
[8] = second compound 0.003 µM, first compound 0.1 µM
[9] = second compound 0.003 µM, first compound 0.316 µM
[10] = second compound 0.003 µM, first compound 1 µM
[11] = second compound 0.003 µM, first compound 3.16 µM
[12] = second compound 0.003 µM, first compound 10 µM
[13] = second compound 0.00949 µM, first compound 0.0316 µM
[14] = second compound 0.00949 µM, first compound 0.1 µM
[15] = second compound 0.00949 µM, first compound 0.316 µM
[16] = second compound 0.00949 µM, first compound 1 µM
[17] = second compound 0.00949 µM, first compound 3.16 µM
[18] = second compound 0.00949 µM, first compound 10 µM
[19] = second compound 0.03 µM, first compound 0.0316 µM
[20] = second compound 0.03 µM, first compound 0.1 µM
[21] = second compound 0.03 µM, first compound 0.316 µM
[22] = second compound 0.03 µM, first compound 1 µM
[23] = second compound 0.03 µM, first compound 3.16 µM
[24] = second compound 0.03 µM, first compound 10 µM
[25] = second compound 0.0949 µM, first compound 0.0316 µM
[26] = second compound 0.0949 µM, first compound 0.1 µM
[27] = second compound 0.0949 µM, first compound 0.316 µM
[28] = second compound 0.0949 µM, first compound 1 µM
[29] = second compound 0.0949 µM, first compound 3.16 µM
[30] = second compound 0.0949 µM, first compound 10 µM
[31] = second compound 0.3 µM, first compound 0.0316 µM
[32] = second compound 0.3 µM, first compound 0.1 µM
[33] = second compound 0.3 µM, first compound 0.316 µM
[34] = second compound 0.3 µM, first compound 1 µM
[35] = second compound 0.3 µM, first compound 3.16 µM
[36] = second compound 0.3 µM, first compound 10 µM
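Also: spheroids exposed to agents for seven days before the viability readout.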
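For viability, T/C in this document: luminescence used as a proxy for viable cell amount.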

CC1(O)CCCC1n1c(=O)c(C(F)F)cc2cnc(NC3CCN(S(C)(=O)=O)CC3)nc21 (stereo not given) + CCn1c(-c2cccnc2C(C)OC)c2c3cc(ccc31)N1CCOC(CC(NC(=O)C(C(C)C)N(C)C(=O)C3(F)CCN(C(=O)C#CC(C)(C)N(C)C)CC3)C(=O)N3CCCC(N3)C(=O)OCC(C)(C)C2)C1
376 nM: IC50 (second compound 0.003 µM)
4320 nM: IC50 (second compound 0.000949 µM)
< 31.6 nM: IC50 (second compound 0.00949 µM) | IC50 (second compound 0.03 µM) | IC50 (second compound 0.0949 µM) | IC50 (second compound 0.3 µM)
inactive: viability, T/C [1] 76.1% | viability, T/C [2] 64% | viability, T/C [3] 68.3% | viability, T/C [4] 59.1% | viability, T/C [5] 51.5% | viability, T/C [6] 44.4% | viability, T/C [7] 58.2% | viability, T/C [8] 55.6% | viability, T/C [9] 52.6% | viability, T/C [10] 38.6% | viability, T/C [11] 34.7% | viability, T/C [12] 31% | viability, T/C [13] 44.8% | viability, T/C [14] 38.5% | viability, T/C [15] 38.3% | viability, T/C [16] 28.5% | viability, T/C [17] 29.3% | viability, T/C [18] 27.1% | viability, T/C [19] 37.4% | viability, T/C [20] 41.1% | viability, T/C [21] 30.1% | viability, T/C [22] 26.1% | viability, T/C [23] 31.4% | viability, T/C [24] 28.1% | viability, T/C [25] 31.5% | viability, T/C [26] 31.9% | viability, T/C [27] 32.2% | viability, T/C [28] 25.3% | viability, T/C [29] 29.8% | viability, T/C [30] 22.7% | viability, T/C [31] 31.9% | viability, T/C [32] 33.7% | viability, T/C [33] 32.6% | viability, T/C [34] 26.8% | viability, T/C [35] 29.5% | viability, T/C [36] 19.6%

CCC(CC)c1cc(NC2CCC(N)C2)n2nccc2n1 (stereo not given) + CCn1c(-c2cccnc2C(C)OC)c2c3cc(ccc31)N1CCOC(CC(NC(=O)C(C(C)C)N(C)C(=O)C3(F)CCN(C(=O)C#CC(C)(C)N(C)C)CC3)C(=O)N3CCCC(N3)C(=O)OCC(C)(C)C2)C1
inactive: viability, T/C [1] 77.1% | viability, T/C [2] 72.7% | viability, T/C [3] 73% | viability, T/C [4] 59.7% | viability, T/C [5] 52.3% | viability, T/C [6] 11.8% | viability, T/C [7] 65.2% | viability, T/C [8] 59% | viability, T/C [9] 56.8% | viability, T/C [10] 39.4% | viability, T/C [11] 36.9% | viability, T/C [12] 10.6% | viability, T/C [13] 44.4% | viability, T/C [14] 53.3% | viability, T/C [15] 48.8% | viability, T/C [16] 35.4% | viability, T/C [17] 20.8% | viability, T/C [18] 11.9% | viability, T/C [19] 33.7% | viability, T/C [20] 42.4% | viability, T/C [21] 40.2% | viability, T/C [22] 23.1% | viability, T/C [23] 20.5% | viability, T/C [24] 10.4% | viability, T/C [25] 29.9% | viability, T/C [26] 33.4% | viability, T/C [27] 38.3% | viability, T/C [28] 36.3% | viability, T/C [29] 11.8% | viability, T/C [31] 34.1% | viability, T/C [32] 36.5% | viability, T/C [33] 39.2% | viability, T/C [34] 31.3% | viability, T/C [35] 12.7%
< 31.6 nM: IC50 (second compound 0.00949 µM) | IC50 (second compound 0.03 µM) | IC50 (second compound 0.0949 µM) | IC50 (second compound 0.3 µM)
2930 nM: IC50 (second compound 0.000949 µM)
active: viability, T/C [30] 9.38% | viability, T/C [36] 9.36%
545 nM: IC50 (second compound 0.003 µM)

CCN1CCN(Cc2ccc(Nc3ncc(F)c(-c4cc(F)c5nc(C)n(C(C)C)c5c4)n3)nc2)CC1 + CCn1c(-c2cccnc2C(C)OC)c2c3cc(ccc31)N1CCOC(CC(NC(=O)C(C(C)C)N(C)C(=O)C3(F)CCN(C(=O)C#CC(C)(C)N(C)C)CC3)C(=O)N3CCCC(N3)C(=O)OCC(C)(C)C2)C1
13.2 nM: IC50 (second compound 0.003 µM)
< 3.16 nM: IC50 (second compound 0.00949 µM) | IC50 (second compound 0.03 µM) | IC50 (second compound 0.0949 µM) | IC50 (second compound 0.3 µM)
239 nM: IC50 (second compound 0.000949 µM)
inactive: viability, T/C (second compound 0.000949 µM, first compound 0.00316 µM) 72.8% | viability, T/C (second compound 0.000949 µM, first compound 0.01 µM) 68.7% | viability, T/C [1] 70.3% | viability, T/C [2] 54.4% | viability, T/C [3] 44.9% | viability, T/C [4] 52.2% | viability, T/C (second compound 0.003 µM, first compound 0.00316 µM) 60% | viability, T/C (second compound 0.003 µM, first compound 0.01 µM) 52.6% | viability, T/C [7] 48.2% | viability, T/C [8] 39.2% | viability, T/C [9] 43% | viability, T/C [10] 47.4% | viability, T/C (second compound 0.00949 µM, first compound 0.00316 µM) 49.7% | viability, T/C (second compound 0.00949 µM, first compound 0.01 µM) 41.7% | viability, T/C [13] 38.9% | viability, T/C [14] 34.5% | viability, T/C [15] 36.6% | viability, T/C [16] 43.4% | viability, T/C (second compound 0.03 µM, first compound 0.00316 µM) 37.6% | viability, T/C (second compound 0.03 µM, first compound 0.01 µM) 37.6% | viability, T/C [19] 34.3% | viability, T/C [20] 35.3% | viability, T/C [21] 43.8% | viability, T/C [22] 45.9% | viability, T/C (second compound 0.0949 µM, first compound 0.00316 µM) 39.6% | viability, T/C (second compound 0.0949 µM, first compound 0.01 µM) 34.4% | viability, T/C [25] 34.5% | viability, T/C [26] 32.1% | viability, T/C [27] 38.9% | viability, T/C [28] 48.8% | viability, T/C (second compound 0.3 µM, first compound 0.00316 µM) 30.8% | viability, T/C (second compound 0.3 µM, first compound 0.01 µM) 32.1% | viability, T/C [31] 32.1% | viability, T/C [32] 28.6% | viability, T/C [33] 36.1% | viability, T/C [34] 41.8%

C[C@@H](NC(=O)c1ncnc(N)c1Cl)c1ncc(C(=O)Nc2cc(C(F)(F)F)c(Cl)cn2)s1 + CCn1c(-c2cccnc2C(C)OC)c2c3cc(ccc31)N1CCOC(CC(NC(=O)C(C(C)C)N(C)C(=O)C3(F)CCN(C(=O)C#CC(C)(C)N(C)C)CC3)C(=O)N3CCCC(N3)C(=O)OCC(C)(C)C2)C1
< 31.6 nM: IC50 (second compound 0.03 µM) | IC50 (second compound 0.0949 µM) | IC50 (second compound 0.3 µM)
> 10000 nM: IC50 (second compound 0.000949 µM) | IC50 (second compound 0.003 µM) | IC50 (second compound 0.00949 µM)
inactive: viability, T/C [1] 87.9% | viability, T/C [2] 87.2% | viability, T/C [3] 87% | viability, T/C [4] 70.2% | viability, T/C [5] 54.4% | viability, T/C [6] 61.5% | viability, T/C [7] 57.9% | viability, T/C [8] 64.3% | viability, T/C [9] 63.5% | viability, T/C [10] 61.6% | viability, T/C [11] 66.2% | viability, T/C [12] 53.7% | viability, T/C [13] 57.8% | viability, T/C [14] 55% | viability, T/C [15] 54.5% | viability, T/C [16] 55.3% | viability, T/C [17] 59.2% | viability, T/C [18] 48.6% | viability, T/C [19] 40.3% | viability, T/C [20] 44.5% | viability, T/C [21] 53.6% | viability, T/C [22] 61.6% | viability, T/C [23] 54.1% | viability, T/C [24] 46.9% | viability, T/C [25] 39.2% | viability, T/C [26] 40.5% | viability, T/C [27] 53.3% | viability, T/C [28] 55% | viability, T/C [29] 62.3% | viability, T/C [30] 49.9% | viability, T/C [31] 32.4% | viability, T/C [32] 43.9% | viability, T/C [33] 35.2% | viability, T/C [34] 53.7% | viability, T/C [35] 56.3% | viability, T/C [36] 39.3%

Cc1nc(N2CCC3(CC2)COC(C)C3N)c(CO)nc1Sc1ccnc(N)c1Cl (stereo not given) + CCn1c(-c2cccnc2C(C)OC)c2c3cc(ccc31)N1CCOC(CC(NC(=O)C(C(C)C)N(C)C(=O)C3(F)CCN(C(=O)C#CC(C)(C)N(C)C)CC3)C(=O)N3CCCC(N3)C(=O)OCC(C)(C)C2)C1
active: viability, T/C [6] 9.55% | viability, T/C [10] 10.4% | viability, T/C [11] 8.15% | viability, T/C [12] 7.47% | viability, T/C [16] 8.57% | viability, T/C [17] 8.2% | viability, T/C [18] 6.2% | viability, T/C [22] 10.1% | viability, T/C [23] 6.29% | viability, T/C [24] 6.11% | viability, T/C [28] 8.48% | viability, T/C [29] 8.98% | viability, T/C [30] 6.05% | viability, T/C [34] 8.27% | viability, T/C [35] 8.02% | viability, T/C [36] 6.57%
41.5 nM: IC50 (second compound 0.003 µM)
365 nM: IC50 (second compound 0.000949 µM)
inactive: viability, T/C [1] 71.8% | viability, T/C [2] 64.7% | viability, T/C [3] 54.1% | viability, T/C [4] 27.5% | viability, T/C [5] 12.1% | viability, T/C [7] 53.4% | viability, T/C [8] 39% | viability, T/C [9] 16.9% | viability, T/C [13] 32.7% | viability, T/C [14] 21.6% | viability, T/C [15] 12.3% | viability, T/C [19] 26.1% | viability, T/C [20] 14.9% | viability, T/C [21] 10.7% | viability, T/C [25] 20.9% | viability, T/C [26] 16% | viability, T/C [27] 8.78% | viability, T/C [31] 21.7% | viability, T/C [32] 14.2% | viability, T/C [33] 10.3%
< 31.6 nM: IC50 (second compound 0.00949 µM) | IC50 (second compound 0.03 µM) | IC50 (second compound 0.0949 µM) | IC50 (second compound 0.3 µM)
